Results from US11767319B2, “Crystalline forms of a selective c-kit kinase inhibitor” (Third Harmonic Bio, Inc., priority 2020, dated 2023).
Entries after “also recorded” stand apart in the source; their conditions may differ.

Assays:
Format in all cases: physicochemical
[1] = Slurry experiments in SGF; conditions: 37° C., 500 rpm
Description: About 200 mg of sodium chloride and about 100 mg Triton X-100 was weighted into a 100-mL volumetric flask. About 100 mL of purified water was added to the flask and the solution was sonicated until all solids were completely dissolved. 1 M HCl was added to adjust the pH to 1.8 and the solution was mixed well and the pH was checked with a pH meter.
Competitive slurry experiments were performed for Forms A, H^A, H^B, C and D in SGF. About 10 mg of each form was added into separate HPLC vials followed by addition of 1.0 mL SGF in order to form slurries. The slurries were heated to 37° C. and stirred at 500 rpm. After 2 h or 24 h, the samples were centrifuged and the solids were collected for XRPD testing.

[2] = Competitive slurry experiments among anhydrates (IPA/IPAc); conditions: at RT and 50° C., IPA/IPAc slurries
Description: Competitive slurry experiments were performed in IPA/IPAc at RT/50° C. between anhydrates Form A of compound 1 and Form D of compound 1. Form A of compound 1 was added into each solvent to form a slurry at RT or 50° C. and was stirred for 2 h. The slurries were then filtered to obtain saturated solution. Around 10 mg each of Form A of compound 1 and Form D of compound 1 were added into each solution to form a mixed slurry at RT or 50° C. […] The formation of Form H^A of compound 1 is postulated to be caused by residual water in the solvents or due to ambient humidity (˜35% humidity during slurry experiments).

[3] = Ethanol/hydrocarbon mixtures slurry study
Description: Using the methods described above for the Form A input and amorphous input experiments, 5×20 mg of Form A slurries and 5×20 mg of amorphous input slurries were prepared by adding 1 mL of solvent (see Table 16 below) to each vial and the resulting slurries were agitated for 24 h at 25° C. After 24 h, aliquots of solid were isolated via centrifugal filtration and analysed by XRPD.

[4] = Hydration mapping starting with Form A
Description: To establish the hydration map of compound 1, solutions with varying water activity (aw) were prepared and the aw was measured using a water activity meter. Table 13 below details the solvent systems investigated and their corresponding measured water activities.
23×20 mg of Form A of compound 1 was weighed into vials. 1 mL of solvent (see tables above) was added to each vial to form a slurry. After manual shaking for a few seconds, where solutions were observed, an additional ˜10 to 20 mg of solid was added to produce a slurry. Additional solid was added to the 2-MeTHF, water/2-MeTHF (1:99% v/v), acetone/water (aw of 0.92) and methanol/water (aw of 0.11) samples. All slurries were then agitated for 24 h at 25° C. After 24 h, aliquots of solid were isolated via centrifugal filtration and analysed by XRPD. The remaining slurries were agitated for a further 5 days (total of 6 days). The solids were isolated and analysed by XRPD. All identified forms were analysed by XRPD, TG/DSC and ^1H NMR (where sufficient material was available).

[5] = Form investigation in buffered media; conditions: for XRPD Pattern / pH (24 h): 24 h at 25° C.
Description: To investigate the polymorphic landscape of compound 1 in buffered systems, 5×20 mg of Form A slurries and 5×20 mg of amorphous slurries (amorphous material prepared using the method described in the above hydration mapping experiments) were prepared by adding 1 mL of buffer to each vial and the resulting slurries were agitated for 24 h at 25° C. The pH was measured post-buffer addition and after 24 h agitation. After 24 h, aliquots of solid were isolated via centrifugal filtration and analysed by XRPD.

[6] = Acetone/Water, aw 0.1363, 25° C.
[7] = Acetone/Water, aw 0.2621, 25° C.
[8] = Acetone/Water, aw 0.5455, 25° C.
[9] = EtOH/Heptane, aw 0.0300, 25° C.
[10] = Water/2-MeTHF, aw 0.5286, 25° C.

Cc1ccc(-c2noc([C@H]3C[C@@H]3F)n2)cc1NC(=O)c1cnc2ccccn12 [Form H^A, N-(5-(5-((1R,2S)-2-fluorocyclopropyl)-1,2,4-oxadiazol-3-yl)-2-methylphenyl)imidazo[1,2-a]pyridine-3-carboxamide]
XRPD at 2 h [1]: No form change; also recorded: Form H^A | XRPD at 2 h ([1]; listed as Form H^B): No form change; also recorded: Form H^B | XRPD at 24 h [1]: No form change; also recorded: Form H^A | XRPD at 24 h ([1]; listed as Form H^B): No form change; also recorded: Form H^B | relative thermodynamic stability [2]: thermodynamically more stable than Form A

Cc1ccc(-c2noc([C@H]3C[C@@H]3F)n2)cc1NC(=O)c1cnc2ccccn12 [Form A, N-(5-(5-((1R,2S)-2-fluorocyclopropyl)-1,2,4-oxadiazol-3-yl)-2-methylphenyl)imidazo[1,2-a]pyridine-3-carboxamide]
XRPD pattern observed ([3]; EtOH/Cyclohexane (50:50% v/v), aw 0.025, 24 h at 25° C.): Form A | XRPD pattern observed ([3]; EtOH/Dodecane (50:50% v/v), aw 0.024, 24 h at 25° C.): Form A | XRPD pattern observed ([3]; EtOH/Hexane (50:50% v/v), aw 0.018, 24 h at 25° C.): Form A | XRPD pattern observed ([3]; EtOH/Methylcyclohexane (50:50% v/v), aw 0.019, 24 h at 25° C.): Form A | XRPD pattern observed ([3]; EtOH/Octane (50:50% v/v), aw 0.019, 24 h at 25° C.): Form A | XRPD at 2 h [1]: transformed to Form C | XRPD at 24 h [1]: transformed to Form C | XRPD pattern observed, 24 h ([4]; 2-MeTHF, aw 0.0378, 25° C.): Form A | XRPD pattern observed, 6 Days ([4]; 2-MeTHF, aw 0.0378, 25° C.): Form A | XRPD pattern observed, 24 h [4, 6]: Form H^A | XRPD pattern observed, 6 Days [4, 6]: Form H^A | XRPD pattern observed, 24 h [4, 7]: Form H^A | XRPD pattern observed, 6 Days [4, 7]: Form H^A | XRPD pattern observed, 24 h [4, 8]: Form H^A | XRPD pattern observed, 6 Days [4, 8]: Form H^A | XRPD pattern observed, 6 Days ([4]; Acetone/Water, aw 0.7082, 25° C.): Form H^A | XRPD pattern observed, 24 h [4, 9]: Form A | XRPD pattern observed, 6 Days [4, 9]: Form A | XRPD pattern observed, 24 h ([4]; EtOH/Water, aw 0.1580, 25° C.): Form H^A | XRPD pattern observed, 6 Days ([4]; EtOH/Water, aw 0.1580, 25° C.): Form H^A | XRPD pattern observed, 24 h ([4]; EtOH/Water, aw 0.3377, 25° C.): Form H^A | XRPD pattern observed, 6 Days ([4]; EtOH/Water, aw 0.3377, 25° C.): Form H^A | XRPD pattern observed, 24 h ([4]; EtOH/Water, aw 0.4986, 25° C.): Form H^A | XRPD pattern observed, 6 Days ([4]; EtOH/Water, aw 0.4986, 25° C.): Form H^A | XRPD pattern observed, 24 h ([4]; EtOH/Water, aw 0.7600, 25° C.): Form H^A | XRPD pattern observed, 6 Days ([4]; EtOH/Water, aw 0.7600, 25° C.): Form H^A | XRPD pattern observed, 24 h ([4]; EtOH/Water, aw 0.9005, 25° C.): Form A | XRPD pattern observed, 24 h ([4]; MeCN/Water, aw 0.1060, 25° C.): Form H^A | XRPD pattern observed, 6 Days ([4]; MeCN/Water, aw 0.1060, 25° C.): Form H^A | XRPD pattern observed, 24 h ([4]; MeCN/Water, aw 0.3664, 25° C.): Form H^A | XRPD pattern observed, 6 Days ([4]; MeCN/Water, aw 0.3664, 25° C.): Form H^A | XRPD pattern observed, 24 h ([4]; MeCN/Water, aw 0.5573, 25° C.): Form H^A | XRPD pattern observed, 6 Days ([4]; MeCN/Water, aw 0.5573, 25° C.): Form H^A | XRPD pattern observed, 6 Days ([4]; MeCN/Water, aw 0.7300, 25° C.): Form H^A | XRPD pattern observed, 24 h ([4]; MeOH/Water, aw 0.0963, 25° C.): Form H^A | XRPD pattern observed, 6 Days ([4]; MeOH/Water, aw 0.0963, 25° C.): Form H^A | XRPD pattern observed, 24 h ([4]; MeOH/Water, aw 0.3242, 25° C.): Form H^A | XRPD pattern observed, 6 Days ([4]; MeOH/Water, aw 0.3242, 25° C.): Form H^A | XRPD pattern observed, 24 h ([4]; MeOH/Water, aw 0.5145, 25° C.): Form H | XRPD pattern observed, 6 Days ([4]; MeOH/Water, aw 0.5145, 25° C.): Form H^A | XRPD pattern observed, 24 h ([4]; MeOH/Water, aw 0.6965, 25° C.): Form H | XRPD pattern observed, 6 Days ([4]; MeOH/Water, aw 0.6965, 25° C.): Form H | XRPD pattern observed, 24 h ([4]; MeOH/Water, aw 0.9294, 25° C.): Form A | XRPD pattern observed, 6 Days ([4]; MeOH/Water, aw 0.9294, 25° C.): Form C | XRPD pattern observed, 24 h [4, 10]: Form H^A | XRPD pattern observed, 6 Days [4, 10]: Form H^A | XRPD Pattern ([5]; NaOH (0.2M)): Form H^A and Form C | XRPD Pattern ([5]; pH 1.2 (HCl—KCl)): HCl Salt Form | XRPD Pattern ([5]; pH 4.5 (acetate)): Form F | XRPD Pattern ([5]; pH 6.8 (phosphate)): Form H^A | XRPD Pattern ([5]; pH 8 (PBS)): Form H^A | pH (Post-Buffer Addition) ([5]; slurry in NaOH (0.2M)): 11.98 | pH (24 h) ([5]; slurry in NaOH (0.2M)): 11.91 | pH (Post-Buffer Addition) ([5]; slurry in pH 1.2 (HCl—KCl)): 1.20 | pH (24 h) ([5]; slurry in pH 1.2 (HCl—KCl)): 1.19 | pH (Post-Buffer Addition) ([5]; slurry in pH 4.5 (acetate)): 4.63 | pH (24 h) ([5]; slurry in pH 4.5 (acetate)): 4.62 | pH (Post-Buffer Addition) ([5]; slurry in pH 6.8 (phosphate)): 6.87 | pH (24 h) ([5]; slurry in pH 6.8 (phosphate)): 6.88 | pH (Post-Buffer Addition) ([5]; slurry in pH 8 (PBS)): 8.04 | pH (24 h) ([5]; slurry in pH 8 (PBS)): 8.17
